# Active and inactive are the calls of the source. The calls are words filed in the database; no cut-off is given here.
# Key:
# [1] = Stability of compound at pH 4.0 assessed as change in purity at 1 mg/ml incubated for 4 hrs by HPLC analysis; type: physicochemical; conditions: buffer, pH 4, 4 h
# [2] = Prodrug conversion in Beagle dog plasma assessed as parent nucleoside metabolite formation at 1 uM measured up to 60 mins by LC-MS/MS analysis; type: ADME, cell-free, Canis lupus familiaris; conditions: 1 h
# [3] = Prodrug conversion in Beagle dog assessed as AUC (0 to t) of 4'-Fluorouridine metabolite at 1 mg/kg, iv by LC-MS/MS analysis; type: ADME, organism-based, Canis lupus familiaris; conditions: in vivo
# [4] = Stability of compound at pH 1.5 assessed as change in purity at 1 mg/ml incubated for 24 hrs by HPLC analysis; type: physicochemical; conditions: buffer, pH 1.5, 24 h
# [5] = Prodrug conversion in Beagle dog assessed as Cmax of 4'-Fluorouridine metabolite at 3 mg/kg/day, po treated for 7 days by LC-MS/MS analysis; type: ADME, organism-based, Canis lupus familiaris; conditions: in vivo, 168 h, time 7 day
# [6] = Prodrug conversion in C57BL/6J mouse assessed as Cmax of 4'-Fluorouridine metabolite at 2 mg/kg, po by LC-MS/MS analysis; type: ADME, organism-based; conditions: in vivo
# [7] = Prodrug conversion in Beagle dog assessed as AUC (0 to t) of 4'-Fluorouridine metabolite at 3 mg/kg, po by LC-MS/MS analysis; type: ADME, organism-based, Canis lupus familiaris; conditions: in vivo
# [8] = Stability of compound at pH 1.5 assessed as change in purity at 1 mg/ml incubated for 12 hrs by HPLC analysis; type: physicochemical; conditions: buffer, pH 1.5, 12 h
# [9] = Prodrug conversion in Sprague-Dawley rat assessed as 4'-Fluorouridine-NTP metabolite formation in brain at 6 mg/kg, po measured for 0.5 to 24 hrs by LC-MS/MS analysis; type: ADME, organism-based; conditions: in vivo, time 0.5-24 hrs
# [10] = Prodrug conversion in Sprague-Dawley rat assessed as 4'-Fluorouridine metabolite formation in spleen at 6 mg/kg, po measured for 0.5 to 24 hrs by LC-MS/MS analysis; type: ADME, organism-based; conditions: in vivo, time 0.5-24 hrs
# [11] = Prodrug conversion in Beagle dog liver microsomes assessed as parent nucleoside metabolite formation at 1 uM measured up to 60 mins in presence of NADPH/UDPGA by LC-MS/MS analysis; type: ADME, Canis lupus familiaris, Microsome; conditions: 1 h
# [12] = Cmax in fasted Sprague-Dawley rat at 23 mg/kg, po by LC-MS/MS analysis; type: ADME, organism-based; conditions: in vivo
# [13] = Prodrug conversion in Beagle dog assessed as AUC (0 to t) of 4'-Fluorouridine metabolite at 10 mg/kg, po by LC-MS/MS analysis; type: ADME, organism-based, Canis lupus familiaris; conditions: in vivo
# [14] = Stability of compound at pH 6.8 assessed as change in purity at 1 mg/ml incubated for 12 hrs by HPLC analysis; type: physicochemical; conditions: buffer, pH 6.8, 12 h
# [15] = Prodrug conversion in Beagle dog assessed as half life of 4'-Fluorouridine metabolite treated orally or intravenously by LC-MS/MS analysis; type: ADME, Canis lupus familiaris; conditions: in vivo, po
# [16] = Prodrug conversion in Sprague-Dawley rat assessed as 4'-Fluorouridine-NTP metabolite formation in lung at 6 mg/kg, po measured for 0.5 to 24 hrs by LC-MS/MS analysis; type: ADME, organism-based; conditions: in vivo, time 0.5-24 hrs
# [17] = Prodrug conversion in Sprague-Dawley rat assessed as 4'-Fluorouridine metabolite formation in heart at 6 mg/kg, po measured for 0.5 to 24 hrs by LC-MS/MS analysis; type: ADME, organism-based; conditions: in vivo, time 0.5-24 hrs
# [18] = tested on: Mammarenavirus choriomeningitidis; test: In vivo antiviral activity against LCMV infected in C57BL/6-Prf1tm1Sdz/J mouse assessed as improvement in platelet count at 1 to 5 mg/kg, po qd treated for 7 days; type: functional, organism-based; conditions: dose 1-5 mg/kg, time 7.0 day
# [19] = tested on: Mammarenavirus choriomeningitidis; test: Antiviral activity against LCMV infected in C57BL/6-Prf1tm1Sdz/J mouse assessed as reduction in viral titer in lung treated orally once daily for 7 days by RT-qPCR analysis; type: functional, organism-based; conditions: dose 1-5 mg/kg, route po, time 7.0 day
# [20] = AUC (0 to t) in fasted Cynomolgus monkey at 11.6 mg/kg, po by LC-MS/MS analysis; type: ADME, organism-based, Macaca fascicularis; conditions: in vivo
# [21] = Prodrug conversion in Sprague-Dawley rat liver microsomes assessed as parent nucleoside metabolite formation at 1 uM measured up to 60 mins in presence of NADPH/UDPGA by LC-MS/MS analysis; type: ADME, Microsome; conditions: 1 h
# [22] = tested on: Mammarenavirus choriomeningitidis; test: In vivo antiviral activity against LCMV infected in C57BL/6-Prf1tm1Sdz/J mouse assessed as void of necrosis in spleen at 1 to 5 mg/kg, po qd for 7 days; type: functional, organism-based; conditions: dose 1-5 mg/kg, time 7.0 day
# [23] = molecular target: Voltage-gated inwardly rectifying potassium channel KCNH2 (Homo sapiens, UniProt Q12809); test: Inhibition of hERG; type: toxicity
# Voltage-gated inwardly rectifying potassium channel KCNH2, sequence (Q12809 whole entry): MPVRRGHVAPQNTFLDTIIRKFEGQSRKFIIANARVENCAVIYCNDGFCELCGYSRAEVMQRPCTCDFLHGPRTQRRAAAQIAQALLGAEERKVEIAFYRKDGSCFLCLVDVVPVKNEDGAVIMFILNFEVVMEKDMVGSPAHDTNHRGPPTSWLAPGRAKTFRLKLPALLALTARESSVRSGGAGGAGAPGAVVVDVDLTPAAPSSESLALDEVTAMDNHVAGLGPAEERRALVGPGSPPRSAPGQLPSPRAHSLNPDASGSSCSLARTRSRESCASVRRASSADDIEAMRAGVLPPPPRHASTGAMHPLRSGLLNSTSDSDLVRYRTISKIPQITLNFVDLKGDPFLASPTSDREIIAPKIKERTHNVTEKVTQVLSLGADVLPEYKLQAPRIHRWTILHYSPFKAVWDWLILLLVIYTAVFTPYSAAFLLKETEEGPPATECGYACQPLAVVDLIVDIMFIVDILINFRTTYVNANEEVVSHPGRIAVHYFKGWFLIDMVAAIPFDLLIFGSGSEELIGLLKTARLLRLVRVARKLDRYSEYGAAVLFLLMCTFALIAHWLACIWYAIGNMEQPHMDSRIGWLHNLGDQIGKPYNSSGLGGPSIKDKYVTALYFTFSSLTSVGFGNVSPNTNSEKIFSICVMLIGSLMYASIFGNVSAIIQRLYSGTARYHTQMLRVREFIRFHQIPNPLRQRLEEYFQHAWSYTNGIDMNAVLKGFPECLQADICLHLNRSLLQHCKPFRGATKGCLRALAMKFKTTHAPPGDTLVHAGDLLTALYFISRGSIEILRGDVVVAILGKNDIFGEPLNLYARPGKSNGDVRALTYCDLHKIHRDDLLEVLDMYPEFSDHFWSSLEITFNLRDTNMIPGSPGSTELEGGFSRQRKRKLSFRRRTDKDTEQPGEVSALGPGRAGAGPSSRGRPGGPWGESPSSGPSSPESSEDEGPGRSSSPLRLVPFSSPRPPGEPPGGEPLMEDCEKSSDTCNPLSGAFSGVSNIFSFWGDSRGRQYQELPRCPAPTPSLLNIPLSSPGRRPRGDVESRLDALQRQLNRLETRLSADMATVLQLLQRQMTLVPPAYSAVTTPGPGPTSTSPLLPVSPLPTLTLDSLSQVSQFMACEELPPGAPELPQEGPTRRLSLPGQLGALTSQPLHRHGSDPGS
# [24] = tested on: Mammarenavirus choriomeningitidis; test: In vivo antiviral activity against LCMV infected in C57BL/6-Prf1tm1Sdz/J mouse assessed as appearance of regular splenic nodule structure at 1 to 5 mg/kg, po qd for 7 days; type: functional, organism-based; conditions: dose 1-5 mg/kg, time 7.0 day
# [25] = Prodrug conversion in Sprague-Dawley rat liver microsomes assessed as parent nucleoside metabolite formation at 1 uM measured up to 60 mins in presence of BNPP/NADPH/UDPGA by LC-MS/MS analysis; type: ADME, Microsome; conditions: 1 h
# [26] = Prodrug conversion in Beagle dog assessed as AUC (0 to t) of 4'-Fluorouridine metabolite at 3 mg/kg/day, po treated for 7 days by LC-MS/MS analysis; type: ADME, organism-based, Canis lupus familiaris; conditions: in vivo, 168 h, time 7 day
# [27] = Stability of compound at pH 6.8 assessed as change in purity at 1 mg/ml incubated for 24 hrs by HPLC analysis; type: physicochemical; conditions: buffer, pH 6.8, 24 h
# [28] = Cytotoxicity against African green monkey Vero cells; type: toxicity, cell-based; conditions: chlorocebus sabaeus
# [29] = Toxicity in Sprague-Dawley rat assessed as drug tolerance administered as single dose; conditions: in vivo
# [30] = Prodrug conversion in Beagle dog plasma assessed as parent nucleoside metabolite formation administered orally or intravenously; type: ADME, cell-free, Canis lupus familiaris; conditions: po
# [31] = tested on: Mammarenavirus choriomeningitidis; test: Antiviral activity against LCMV infected in C57BL/6-Prf1tm1Sdz/J mouse assessed as reduction in viral copy number in spleen treated orally once daily for 7 days by RT-qPCR analysis; type: functional, organism-based; conditions: dose 1-5 mg/kg, route po, time 7.0 day
# [32] = tested on: Mammarenavirus choriomeningitidis; test: In vivo antiviral activity against LCMV infected in C57BL/6-Prf1tm1Sdz/J mouse assessed as improvement in body weight loss at 1 to 5 mg/kg, po qd treated for 7 days; type: functional, organism-based; conditions: dose 1-5 mg/kg, time 7.0 day
# [33] = Prodrug conversion in C57BL/6J mouse plasma assessed as parent nucleoside metabolite formation at 1 uM measured up to 60 mins by LC-MS/MS analysis; type: ADME, cell-free; conditions: 1 h
# [34] = Prodrug conversion in Sprague-Dawley rat assessed as 4'-Fluorouridine metabolite formation in small intestine at 6 mg/kg, po measured for 0.5 to 24 hrs by LC-MS/MS analysis; type: ADME, organism-based; conditions: in vivo, time 0.5-24 hrs
# [35] = Prodrug conversion in C57BL/6J mouse liver microsomes assessed as parent nucleoside metabolite formation at 1 uM measured up to 60 mins in presence of BNPP/NADPH/UDPGA by LC-MS/MS analysis; type: ADME, Microsome; conditions: 1 h
# [36] = tested on: Mammarenavirus choriomeningitidis; test: Antiviral activity against LCMV infected in C57BL/6-Prf1tm1Sdz/J mouse assessed as reduction in viral copy number in kidney treated orally once daily for 7 days by RT-qPCR analysis; type: functional, organism-based; conditions: dose 1-5 mg/kg, route po, time 7.0 day
smiles,measurement,setting,value
CC(C)C(=O)OC[C@@]1(F)O[C@@H](n2ccc(=O)n(COC(=O)c3cccnc3)c2=O)[C@H](OC(=O)C(C)C)[C@@H]1OC(=O)C(C)C,Activity,[1],0%
same,Drug metabolism,[2],metabolite_detected
same,AUCt,[3],282 ng·h/mL
same,Activity,[4],-9.2%
same,Cmax,[5],411 ng/mL
same,Cmax,[6],57 ng/mL
same,AUCt,[7],903 ng·h/mL
same,Activity,[8],-4.2%
same,Drug metabolism,[9],metabolite_detected
same,Drug metabolism,[10],metabolite_detected
same,Drug metabolism,[11],metabolite_detected
same,Cmax,[12],1230 ng/mL
same,AUCt,[13],3601 ng·h/mL
same,Activity,[14],-0.3%
same,t1/2,[15],1 h
same,Drug metabolism,[16],metabolite_detected
same,Drug metabolism,[17],metabolite_detected
same,Activity,[18],Active
same,Activity,[19],Dose-dependent-effect
same,AUC(0-t),[20],15100 ng·h/mL
same,Drug metabolism,[21],metabolite_detected
same,Activity,[22],Active
same,inhibition (INH),[23],Not_active
same,Activity,[24],Active
same,Drug metabolism,[25],metabolite_notdetected
same,AUCt,[26],1249 ng·h/mL
same,Activity,[27],-0.6%
same,CC50,[28],> 100 µM
same,Activity,[29],Non-toxic
same,Drug metabolism,[30],metabolite_detected
same,Activity,[31],Dose-dependent-effect
same,Activity,[32],Active
same,Drug metabolism,[33],metabolite_detected
same,Drug metabolism,[34],metabolite_detected
same,Drug metabolism,[35],metabolite_notdetected
same,Activity,[36],Dose-dependent-effect
